This assay concerns CEM cells HIV-1 protection, formazan growth assay. Kind of assay: NCI AIDS Antiviral Assay. The following applies: for IC50: measured here: growth of uninfected CEM cells. In a few lines: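 Protection of CEM cells against HIV-1 was scored from cell growth (soluble formazan) across five concentrations, with parallel uninfected cells. Lack of protection may reflect toxicity.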

Active and inactive are the calls of the source.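 How the source made its calls: active means compounds giving half or more protection of infected cells from virus-caused growth loss, again on retest; inactive means the rest.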

As to `Cc1cccc(-c2cccc(COCc3cccc(-c4cccc(CO)n4)n3)n2)n1`, the EC50 is greater than 100 µM and the IC50 worked out at 43.7 µM.
Taken in the same sequence, the figures for `N#COc1ccc(Oc2ccc(OC#N)cc2)cc1` were greater than 141 µM and 45.7 µM.
As for `O=C(/C=C/c1ccccc1)NCCC1(O)C(=O)Nc2ccccc21` (stereo not drawn), the EC50 was greater than 562 µM and the IC50 amounted to 525 µM.
Taken in the same sequence, the figures for `CCOC(=O)CSc1ccnc(=O)[nH]1` were greater than 851 µM and greater than 851 µM.
As for `CCOC(=O)N1C(=S)C(C(=O)OC)(C(=O)OC)N=C1C`, the EC50 is greater than 200 µM and the IC50 is greater than 200 µM.
In the case of `FC(F)(Oc1ccccc1)c1nc2ccccc2o1`, the EC50 was greater than 200 µM and the half-inhibitory concentration (IC50) worked out at 64.6 µM.
Taken in the same sequence, the figures for `O/C(=C\c1nc2ccccc2nc1NC12CC3CC(CC(C3)C1)C2)c1ccc(Br)cc1` were greater than 200 µM and greater than 200 µM.
As to `Cc1cc(N(CCC#N)CCC#N)ccc1N=Nc1ccc([N+](=O)[O-])cc1`, the EC50 was greater than 14.5 µM and the IC50 is greater than 14.5 µM.
For the molecule `CCCC(=O)NC(Nc1cc(C)ccn1)(C(=O)OCC)C(F)(F)F` (stereo not drawn), the EC50 was 105 µM and the IC50 worked out at 501 µM.
With `Cc1cc(N2CCCC2)c([N+](=O)[O-])cc1[N+](=O)[O-]`, the EC50 was greater than 200 µM and the IC50 was greater than 200 µM.
As for `Cc1cc(NS(=O)(=O)c2ccc(Nc3c4ccccc4nc4c(C(=O)NC(CO)(CO)CO)cccc34)cc2)no1`, the EC50 was greater than 200 µM and the half-maximal inhibitory concentration (IC50) was found to be 11.2 µM.
Taken in the same sequence, the figures for `CN(C)c1nc(N)nc(Nc2ccc(Br)cc2)c1N=O` were greater than 200 µM and 37.2 µM.
For `CCN1CCC(O)(c2ccc([N+](=O)[O-])cc2)C(C(=O)c2ccc([N+](=O)[O-])cc2)C1` (stereo not drawn) the same measures were greater than 200 µM and 33.1 µM.
With `COc1cc(C2C(=O)C(Cl)N2Nc2nc(C)cc(=O)[nH]2)cc(OC)c1OC` (stereo not drawn), the EC50 is greater than 66.1 µM and the half-inhibitory concentration (IC50) is 9.77 µM.
For `Cc1ccc(NC(=O)C(=O)Cc2nc3ccccc3o2)c(C)c1` the same measures were greater than 12.3 µM and greater than 12.3 µM.
For `c1ccc(C2N3CCCCC3[C@@H]3c4[nH]c5ccccc5c4CCN23)cc1` (stereo partly drawn) the same measures were greater than 20.9 µM and greater than 20.9 µM.
For the molecule `O=[N+]([O-])c1ccc(C2=Nn3c(nnc3-c3ccccc3)SC2)o1`, the outcome was inactive.
With `CC(C)(C)c1ccc(-c2nnc(-c3cc(C#N)cc(-c4nnc(-c5ccc(C(C)(C)C)cc5)o4)c3)o2)cc1`, the EC50 was greater than 100 µM and the IC50 was greater than 100 µM.
With `Nc1ncnc2oc(C3OC(COC(=O)c4ccccc4)C(OC(=O)c4ccccc4)C3OC(=O)c3ccccc3)nc12` (stereo not drawn), the EC50 was greater than 200 µM and the IC50 was 148 µM.
For `COC12C(COC(=O)NCCO)C3=C(C(=O)C(C)=C(N)C3=O)N1CC1NC12` (stereo not drawn) the same measures were greater than 331 µM and 1.15 µM.
Taken in the same sequence, the figures for `NC(=S)N/N=C1\CCCC1C(O)(C(F)(F)Cl)C(F)(F)Cl` (stereo not drawn) were greater than 200 µM and 38.9 µM.
Taken in the same sequence, the figures for `c1ccc(N2N=NC3C4CC(C32)C2C4N=NN2c2ccccc2)cc1` (stereo not drawn) were greater than 200 µM and greater than 200 µM.
With `CCCC(CC)C(C(=O)OCC)C1=NC(C)(C)CC(C)O1` (stereo not drawn), the EC50 is greater than 200 µM and the IC50 was greater than 200 µM.
With `O=C(OCCSSCCOC(=O)c1ccc([N+](=O)[O-])cc1)c1ccc([N+](=O)[O-])cc1`, the EC50 was greater than 200 µM and the IC50 was found to be 12 µM.
Take `CC(=O)Oc1ccc(C2SCc3nc4ccccc4n32)cc1` (stereo not drawn): the EC50 was greater than 200 µM and the IC50 came to 18.2 µM.
`Cc1c(Cl)ccc2c1NC(=O)C2(O)CC(=O)c1ccc(Cl)cc1Cl` (stereo not drawn): the EC50 is greater than 0.708 µM and the IC50 was greater than 0.708 µM.
Turning to `Cn1cc(NC(=O)Nc2cc(C(=O)Nc3cc(C(=O)Nc4cc(P(=O)(O)O)c5cccc(P(=O)(O)O)c5c4)n(C)c3)n(C)c2)cc1C(=O)Nc1cc(C(=O)Nc2cc(P(=O)(O)O)c3cccc(P(=O)(O)O)c3c2)n(C)c1`, the EC50 was 89.1 µM and the IC50 was 126 µM.
For `CN(C)C(=S)SC(=S)N(C)C` the same measures were greater than 200 µM and 11 µM.
For `CCOC(=O)c1ccc(N2N=NC3C4CC(C5CCCC54)C32)cc1` (stereo not drawn) the same measures were greater than 200 µM and greater than 200 µM.
Taken in the same sequence, the figures for `CN1C(=O)C(C)(O)c2ccccc21` (stereo not drawn) were greater than 1410 µM and 550 µM.
For the molecule `CC(=O)C1=CC=C/C1=N\Nc1ccccc1`, the EC50 is greater than 200 µM and the IC50 worked out at 11 µM.
Taken in the same sequence, the figures for `CN1CC2CN(Cc3ccccc3)CCN2c2cccnc21` (stereo not drawn) were greater than 200 µM and 81.3 µM.
For `N#CC1=C(Nc2ccccc2)SC=C(c2ccccc2)NC1=NCc1ccccc1` the same measures were greater than 200 µM and 97.7 µM.
In the case of `COc1c2c(c3c(c1C1OC(C)[C@@H](C)O1)CC(C)(C)O3)C(=O)c1ccccc1C2=O` (stereo partly drawn), the EC50 was greater than 63.1 µM and the IC50 was greater than 63.1 µM.
Take `CC1=C(c2cc(C(=O)Nc3cc(C)ccc3C)nc(N)n2)Sc2ccccc2N1`: the EC50 is greater than 12.9 µM and the IC50 is greater than 12.9 µM.
As to `O=C(CC1(CC(=O)NCc2ccccc2)OCCO1)NCc1ccccc1`, the result was inactive.
On to `c1ccc2c(c1)Nc1nsnc1N2`, for which the EC50 is greater than 27.5 µM and the IC50 was 7.08 µM.
Turning to `CCCCCCCCCC/C=C/CC(=O)SCCNC(=O)CCNC(=O)[C@@H](O)C(C)(C)COP(=O)(O)OP(=O)(O)OCC1OC(n2cnc3c(N)ncnc32)C(O)C1OP(=O)(O)O` (stereo partly drawn), the result was inactive.
As for `CC(=O)C(/C=N\C(N)=S)=C(\C)O`, the EC50 is greater than 200 µM and the concentration for half-maximal inhibition (IC50) is greater than 200 µM.
As to `NNC(=O)C1CC2c3ccccc3C1c1ccccc12` (stereo not drawn), the result was inactive.
On to `Nc1ncnc2c1ncn2CC(=O)NCCO`, for which the EC50 was greater than 200 µM and the IC50 was greater than 200 µM.
For `COC(=O)/C=C\C(C#N)(C#N)N=Cc1cccc(OC)c1`, the EC50 was greater than 20 µM and the IC50 stood at 1.26 µM.
In the case of `COC(=O)Cc1c(-c2[nH]c3ccccc3c2CC(=O)OC)[nH]c2ccccc12`, the outcome was inactive.
Turning to `O=C1NC(c2ccco2)N2C(=O)NC(c3ccco3)N12` (stereo not drawn), the result was inactive.
Consider `CCCc1cc(=O)oc2c3c(c4c(c12)OC(C)(C)[C@H](O)[C@H]4O)O[C@@H](C)[C@H](C)[C@@H]3O`, for which the EC50 is greater than 200 µM and the IC50 is 115 µM.
Consider `O=C(Cc1ccccc1)NNc1nc(NNC(=O)c2ccncc2)nc(Nc2ccc(Cl)cc2)n1`, for which the EC50 is greater than 100 µM and the 50% inhibitory concentration (IC50) is greater than 100 µM.
Turning to `C=C1SC(=Nc2ccccc2Cl)N(C(=O)c2sc3ccccc3c2Cl)C1(C)C`, the EC50 was greater than 25.1 µM and the IC50 came to 11.5 µM.
In turn, `O=C(O)c1ccccc1-c1c2ccc(=O)c(Cl)c-2oc2c(Cl)c(O)ccc12` gave an EC50 of 17.8 µM and an IC50 of 56.2 µM.
For `Cc1nnc(NS(=O)(=O)c2ccc(N=Nc3cc4ccccc4c(C(=O)O)c3O)cc2)s1` the same measures were greater than 200 µM and 22.9 µM.
For `CC(=O)[C@H]1[C@@H](OCc2ccccc2)O[N+]([O-])=C(C)[C@@H]1c1ccccc1` the same measures were greater than 123 µM and 89.1 µM.
Taken in the same sequence, the figures for `Cc1cc(C)c(SSc2nnnn2C)c(C)c1` were greater than 200 µM and 19.5 µM.
As to `C#CCNCC(=O)O`, the EC50 is 46.8 µM and the concentration for half-maximal inhibition (IC50) was greater than 200 µM.

As a reminder, the EC50 is the concentration at which the effect is half-maximal. A word on the IC50: it is the midpoint of a concentration-inhibition curve. High values mean weaker potency, low ones greater potency.

(Values after PubChem BioAssay AID179 (DTP/NCI, 2004).)
